IC50 data for 25 molecules are collected here from patent US12435051B2, “Dual modulator of mGluR5 and 5-HT2A receptor, and use thereof” (Vivozon Inc., priority 2020, dated 2025).

Bounds are passed on as bounds.

One experiment addresses T1, human 5-HT2AR (Homo sapiens, UniProt P28223).
T1 construct: expressed in transfected cells; host or cells: HEK293
Nature of the experiment: HTRF-based IP1 accumulation assay (5-HT2AR antagonistic effect). Type of experiment: cell-based. The settings on record: HEK293 cells overexpressing human 5-HT2AR; serotonin at EC80. How it is done:
The 5-HT2AR antagonistic effect of the test compounds was confirmed by measuring the production amount of IP1 using the HEK293 cell line permanently overexpressing the human 5-HT2AR. The test compounds were dissolved in 100% DMSO to a final concentration of 10 mM. The starting concentration of 10 μM was prepared from the stock solution, followed by serial dilutions to prepare working solutions in a buffer containing lithium chloride (LiCl). The cells and compounds prepared in the test buffer were placed in a 96-well plate and incubated at room temperature for 10 minutes. Serotonin of EC80 concentration was added, followed by incubation at 37° C. for 30 minutes in a light-shielding state. To measure IP1 accumulation in cells, JP1-d2 acceptor and IP1-Cryptate donor-which are HTRF-based substances for fluorescence signals-were added and incubated for 1 hour at room temperature in a light-shielded state. The fluorescent emission signals of acceptor and donor were detected, and HTRF ratio values were substracted by mean value of serotonin control. The percentage of activation was calculated by normalization of the serotonin control (0%) and IP1 control (100%). The IC50 values of the test compounds are represented in Table 1. (+: 1,000-2,000 nM, ++: 500-1,000 nM, +++: 100-500 nM, ++++: less than 100 nM).
For orientation: In TR-FRET formats the signal depends on donor and acceptor labels being close together.

A further experiment concerns the target T2, mGluR5 (Homo sapiens, UniProt P41594).
T2 construct: expressed in transfected cells; host or cells: HEK293
In words: Fluorescence-based Ca2+ mobilization assay. Type of experiment: cell-based. The settings on record: HEK293 cells overexpressing mGluR5; L-glutamate at EC80. The method, then:
In order to measure the activity on the mGluR5, an experiment was carried out to check the change in the intracellular Ca^2+ level using the HEK293 cell line permanently overexpressing the mGluR5. The cells in the cell culture medium were aliquoted into a 384-well plate coated with poly-D-lysine and cultured in a 37° C. incubator supplied with 5% CO2. The next day, the medium was removed and a dye loading buffer—in which a reagent capable of measuring Ca^2+ was dissolved—was added, and then incubated at 37° C. for 60 minutes. The test compounds were dissolved in 100% DMSO at a final concentration of 10 mM to make a stock solution. The starting concentration of […] was prepared from the stock solution, followed by serial dilutions to prepare working solutions (test compound working solutions). The test compound working solutions were added to the cells that were incubated in the dye loading buffer, which were maintained for 30 minutes at room temperature in a light-shielding state before measurement. The Ca^2+ level change induced by L-glutamate at EC80 concentration was measured for 2 minutes using FLIPR Tetra (MDS Analytical Technologies). The fluorescent Ca^2+ signal values in the presence of the test compounds were normalized to the fluorescent signal elicited by […] concentration of L-glutamate as 100% and that elicited by vehicle as 0% to estimate % inhibition of the test compounds. The efficacy of the test compounds was calculated as IC50 values and represented in Table 1. (+: 1,000-2,000 nM, ++: 500-1,000 nM, +++: 100-500 nM, ++++: less than 100 nM).
In general terms: A change in cytosolic calcium serves as a functional read-out for many receptors and channels.

T2 sequence (P41594 21-1212): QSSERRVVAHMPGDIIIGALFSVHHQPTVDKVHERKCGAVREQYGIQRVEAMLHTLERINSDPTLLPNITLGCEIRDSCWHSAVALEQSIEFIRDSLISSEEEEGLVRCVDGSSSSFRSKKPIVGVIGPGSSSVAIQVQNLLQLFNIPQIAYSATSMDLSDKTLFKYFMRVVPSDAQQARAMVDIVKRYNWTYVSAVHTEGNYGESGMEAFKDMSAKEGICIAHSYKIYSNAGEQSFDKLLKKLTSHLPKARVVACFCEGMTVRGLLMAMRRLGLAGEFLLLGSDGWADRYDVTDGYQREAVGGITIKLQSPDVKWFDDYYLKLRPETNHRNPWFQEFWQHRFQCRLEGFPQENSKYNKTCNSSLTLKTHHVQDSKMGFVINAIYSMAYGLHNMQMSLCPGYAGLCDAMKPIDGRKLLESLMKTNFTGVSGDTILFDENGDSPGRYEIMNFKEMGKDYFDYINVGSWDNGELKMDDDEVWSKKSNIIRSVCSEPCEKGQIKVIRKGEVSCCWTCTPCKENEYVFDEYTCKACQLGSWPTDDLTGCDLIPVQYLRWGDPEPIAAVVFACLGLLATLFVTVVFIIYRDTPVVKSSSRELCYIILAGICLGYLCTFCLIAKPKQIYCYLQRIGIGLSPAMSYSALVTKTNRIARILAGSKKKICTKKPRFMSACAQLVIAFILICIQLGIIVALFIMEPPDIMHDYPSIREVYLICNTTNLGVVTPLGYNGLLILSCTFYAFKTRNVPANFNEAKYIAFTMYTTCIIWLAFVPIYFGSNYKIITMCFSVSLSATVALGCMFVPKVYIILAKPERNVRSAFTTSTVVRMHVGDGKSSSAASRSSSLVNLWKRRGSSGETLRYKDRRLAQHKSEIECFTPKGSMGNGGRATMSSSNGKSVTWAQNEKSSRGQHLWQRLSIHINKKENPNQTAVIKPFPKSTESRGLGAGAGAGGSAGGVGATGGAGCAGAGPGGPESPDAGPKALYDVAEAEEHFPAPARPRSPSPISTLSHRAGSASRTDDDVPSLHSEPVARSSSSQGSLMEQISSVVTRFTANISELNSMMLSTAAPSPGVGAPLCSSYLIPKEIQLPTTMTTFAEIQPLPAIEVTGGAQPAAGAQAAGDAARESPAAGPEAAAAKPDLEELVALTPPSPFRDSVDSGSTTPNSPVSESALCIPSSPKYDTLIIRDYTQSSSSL
T1 sequence (P28223 whole entry): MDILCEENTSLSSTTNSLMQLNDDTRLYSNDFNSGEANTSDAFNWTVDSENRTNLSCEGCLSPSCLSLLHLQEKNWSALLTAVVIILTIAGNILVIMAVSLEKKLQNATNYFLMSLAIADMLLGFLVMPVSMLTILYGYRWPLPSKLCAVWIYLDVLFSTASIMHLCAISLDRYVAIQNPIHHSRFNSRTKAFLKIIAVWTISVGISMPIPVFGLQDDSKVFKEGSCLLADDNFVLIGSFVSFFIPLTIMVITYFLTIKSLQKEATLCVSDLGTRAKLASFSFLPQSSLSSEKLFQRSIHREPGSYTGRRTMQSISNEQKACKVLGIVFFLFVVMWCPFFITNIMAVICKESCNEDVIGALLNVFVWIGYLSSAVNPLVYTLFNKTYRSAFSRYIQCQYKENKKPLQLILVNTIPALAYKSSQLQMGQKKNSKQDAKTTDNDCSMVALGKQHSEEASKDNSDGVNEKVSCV

In the case of `O=C(NCC1(NC2CC2)CCC1)c1ccc(C#Cc2ccc(F)cn2)cc1` [Example 4, N-((1-(cyclopropylamino)cyclobutyl)methyl)-4-((5-fluoropyridin-2-yl)ethynyl)benzamide], the values for the concentration for half-maximal inhibition (IC50) at human 5-HT2AR and against mGluR5 were 100 to 500 nM and 1000 to 2000 nM, respectively.

Consider `O=C(NCC1(NC2CC2)CCC1)c1ccc(C#Cc2ccc(F)cc2)cc1` [Example 6, N-((1-(cyclopropylamino)cyclobutyl)methyl)-4-((4-fluorophenyl)ethynyl)benzamide], for which the half-inhibitory concentration (IC50) against human 5-HT2AR was under 100 nM; at mGluR5, 500 to 1000 nM.

Take `O=C(NCC1(NC2CC2)CCC1)c1ccc(C#Cc2ccncc2)c(F)c1` [Example 7, N-((1-(cyclopropylamino)cyclobutyl)methyl)-3-fluoro-4-(pyridin-4-ylethynyl)benzamide]: the half-inhibitory concentration (IC50) against human 5-HT2AR lay in the range of 100 to 500 nM; on mGluR5, 1000 to 2000 nM.

On to `O=C(NCC1(NC2CC2)CCC1)c1ccc(C#Cc2ccccn2)cc1` [Example 8, N-((1-(cyclopropylamino)cyclobutyl)methyl)-4-(pyridin-2-ylethynyl)benzamide], for which the IC50 is 1000 to 2000 nM on human 5-HT2AR and 500 to 1000 nM against mGluR5.

In the case of `O=C(NCC1(NC2CC2)CCCC1)c1ccc(C#Cc2ccc(F)cc2)cc1` [Example 13, N-((1-(cyclopropylamino)cyclopentyl)methyl)-4-((4-fluorophenyl)ethynyl)benzamide], the IC50 on human 5-HT2AR was under 100 nM; on mGluR5, 500 to 1000 nM.

`O=C(NCC1(NC2CC2)CCCCCC1)c1ccc(C#Cc2ccc(F)cc2)cc1` [Example 14, N-((1-(cyclopropylamino)cycloheptyl)methyl)-4-((4-fluorophenyl)ethynyl)benzamide]: the IC50 on human 5-HT2AR was under 100 nM; on mGluR5 it was 100 to 500 nM.

As to `O=C(NCC1(NC2CC2)CCCCCC1)c1ccc(C#Cc2ccc(F)cn2)cc1` [Example 15, N-((1-(cyclopropylamino)cycloheptyl)methyl)-4-((5-fluoropyridin-2-yl)ethynyl)benzamide], the half-maximal inhibitory concentration (IC50) lay within 100 to 500 nM on human 5-HT2AR and 500 to 1000 nM against mGluR5.

Consider `O=C(NCC1(NC2CC2)CCCC1)c1ccc(C#Cc2ccc(F)c(F)c2)cc1` [Example 17, N-((1-(cyclopropylamino)cyclopentyl)methyl)-4-((3,4-difluorophenyl)ethynyl)benzamide], for which the concentration for half-maximal inhibition (IC50) against human 5-HT2AR is 100 to 500 nM; at mGluR5 it was 1000 to 2000 nM.

In the case of `O=C(NCC1(NC2CC2)CCCCCC1)c1ccc(C#Cc2ccc(F)c(F)c2)cc1` [Example 18, N-((1-(cyclopropylamino)cycloheptyl)methyl)-4-((3,4-difluorophenyl)ethynyl)benzamide], the IC50 against human 5-HT2AR was 500 to 1000 nM; against mGluR5, 1000 to 2000 nM.

For `O=C(NCC1(NC2CC2)CCCCC1)c1ccc(C#Cc2ccc(F)cc2)cc1` [Example 19, N-((1-(cyclopropylamino)cyclohexyl)methyl)-4-((4-fluorophenyl)ethynyl)benzamide], the IC50 is under 100 nM at human 5-HT2AR and 1000 to 2000 nM against mGluR5.

`Cc1cc(C#Cc2ccc(C(=O)NCC3(NC4CC4)CCCC3)cc2)ccn1` [Example 21, N-((1-(cyclopropylamino)cyclopentyl)methyl)-4-((2-methylpyridin-4-yl)ethynyl)benzamide]: the results for the concentration for half-maximal inhibition (IC50) against human 5-HT2AR and on mGluR5 were 500 to 1000 nM and 1000 to 2000 nM, respectively.

With `O=C(NCC1(N2CCOCC2)CCCC1)c1ccc(C#Cc2ccccc2F)cc1` [Example 23, 4-((2-fluorophenyl)ethynyl)-N-((1-morpholinocyclopentyl)methyl)benzamide], the half-maximal inhibitory concentration (IC50) is 100 to 500 nM against human 5-HT2AR and 500 to 1000 nM against mGluR5.

In the case of `CC(C)NC1(CNC(=O)c2ccc(C#Cc3ccccc3F)cc2)CCOCC1` [Example 24, 4-((2-fluorophenyl)ethynyl)-N-((4-(isopropylamino)tetrahydro-2H-pyran-4-yl)methyl)benzamide], the half-inhibitory concentration (IC50) at human 5-HT2AR and at mGluR5 was 100 to 500 nM in each case.

Turning to `CC1CCC(CNC(=O)c2ccc(C#Cc3ccccc3F)cc2)(NC2CC2)CC1` (centres unmarked) [Example 26, N-((1-(cyclopropylamino)-4-methylcyclohexyl)methyl)-4-((2-fluorophenyl)ethynyl)benzamide], the half-maximal inhibitory concentration (IC50) against human 5-HT2AR is under 100 nM; at mGluR5, 1000 to 2000 nM.

For `CC(C)(C)CNC1(CNC(=O)c2ccc(C#Cc3ccccc3F)cc2)CCCCC1` [Example 28, 4-((2-fluorophenyl)ethynyl)-N-((1-(neopentylamino)cyclohexyl)methyl)benzamide], the IC50 against human 5-HT2AR was 100 to 500 nM; against mGluR5, 1000 to 2000 nM.

Consider `O=C(NCC1(CC2CC2)CCOCC1)c1ccc(C#Cc2ccccc2F)cc1` [Example 29, N-((4-(cyclopropylmethyl)tetrahydro-2H-pyran-4-yl)methyl)-4-((2-fluorophenyl)ethynyl)benzamide], for which the concentration for half-maximal inhibition (IC50) at human 5-HT2AR and against mGluR5 was 100 to 500 nM each time.

With `CC(C)NC1(CNC(=O)c2ccc(C#Cc3ccccc3F)cc2)CCCC1` [Example 30, 4-((2-fluorophenyl)ethynyl)-N-((1-(isopropylamino)cyclopentyl)methyl)benzamide], the values for the half-maximal inhibitory concentration (IC50) against human 5-HT2AR and on mGluR5 were under 100 nM and 500 to 1000 nM, respectively.

As to `O=C(NCC1(NCC(F)(F)F)CCCCC1)c1ccc(C#Cc2ccncc2)cc1` [Example 31, 4-(pyridin-4-ylethynyl)-N-((1-((2,2,2-trifluoroethyl)amino)cyclohexyl)methyl)benzamide], the IC50 against human 5-HT2AR and on mGluR5 was 1000 to 2000 nM throughout.

For `O=C(NCC1(O)CCCCC1)c1ccc(C#Cc2ccccc2F)cc1` [Example 32, 4-((2-fluorophenyl)ethynyl)-N-((1-hydroxycyclohexyl)methyl)benzamide], the half-maximal inhibitory concentration (IC50) at human 5-HT2AR was 500 to 1000 nM; on mGluR5, under 100 nM.

Turning to `O=C(NCC1CCOCC1)c1ccc(C#Cc2ccc(F)cc2)cc1` [Example 33, 4-((4-fluorophenyl)ethynyl)-N-((tetrahydro-2H-pyran-4-yl)methyl)benzamide], the half-inhibitory concentration (IC50) against human 5-HT2AR is 1000 to 2000 nM; at mGluR5 it was 100 to 500 nM.

For `O=C(NCC1(c2cccnc2)CCCC1)c1ccc(C#Cc2ccccc2F)cc1` [Example 34, 4-((2-fluorophenyl)ethynyl)-N-((1-(pyridin-3-yl)cyclopentyl)methyl)benzamide], the concentration for half-maximal inhibition (IC50) on human 5-HT2AR lay in the range of 1000 to 2000 nM; against mGluR5 it was 500 to 1000 nM.

As to `O=C(NCC1CCOCC1)c1ccc(C#Cc2ccccc2F)cc1F` [Example 35, 2-fluoro-4-((2-fluorophenyl)ethynyl)-N-((tetrahydro-2H-pyran-4-yl)methyl)benzamide], the results for the IC50 against human 5-HT2AR and against mGluR5 were 1000 to 2000 nM and under 100 nM, respectively.

On to `CC1(CNC(=O)c2ccc(C#Cc3ccccc3F)cc2)CCOCC1` [Example 36, 4-((2-fluorophenyl)ethynyl)-N-((4-methyltetrahydro-2H-pyran-4-yl)methyl)benzamide], for which the IC50 against human 5-HT2AR is 500 to 1000 nM; against mGluR5, under 100 nM.

Regarding `O=C(NCC1(CO)CCOCC1)c1ccc(C#Cc2ccccc2F)cc1` [Example 38, 4-((2-fluorophenyl)ethynyl)-N-((4-(hydroxymethyl)tetrahydro-2H-pyran-4-yl)methyl)benzamide], the concentration for half-maximal inhibition (IC50) at human 5-HT2AR was in the range of 500 to 1000 nM; against mGluR5, 100 to 500 nM.

For the molecule `C[C@@H](NC(=O)c1ccc(C#Cc2ccccc2F)cc1)C1CCOCC1` [Example 47, (R)-4-((2-fluorophenyl)ethynyl)-N-(1-(tetrahydro-2H-pyran-4-yl)ethyl)benzamide], the figures for the IC50 against human 5-HT2AR and at mGluR5 were 100 to 500 nM and under 100 nM, respectively.

One may read the IC50 as the concentration that inhibits the measured activity by half. A high value points to weaker potency.
